Results: the NIST ThermoML archive (doi:10.1021/je0603325)
Numbers after ± are expanded uncertainties.

Experiments:
[1] = 101 kPa, Liquid
[2] = molar heat capacity at constant pressure; conditions: 101 kPa, Liquid, Small sample (50 mg) DSC
[3] = xn = mol fraction of the nth substance listed; conditions: 101 kPa, Liquid, x2 = 0

BrCCBr [1,2-dibromoethane]
Conditions	mass density [kg/m3]	molar heat capacity at constant pressure [J/K/mol]	speed of sound [m/s]
[1], 292.84 K	–	–	1007.5 ± 2.4
[1], 293.15 K	2178.77 ± 2.9	–	–
[1], 298.15 K	2168.41 ± 2.9	–	–
[1], 299.17 K	–	–	991.14 ± 2.4
[1], 303.15 K	2157.94 ± 2.9	–	–
[1], 303.37 K	–	–	980.18 ± 2.4
[1], 308.15 K	2147.47 ± 2.8	–	–
[1], 308.75 K	–	–	966.56 ± 2.4
[1], 313.15 K	2136.96 ± 2.8	–	–
[1], 314.45 K	–	–	952 ± 2.3
[2], 293.15 K	–	136.87 ± 2.1	–
[2], 294.15 K	–	136.9 ± 2.1	–
[2], 295.15 K	–	136.95 ± 2.1	–
[2], 296.15 K	–	136.99 ± 2.1	–
[2], 297.15 K	–	137.02 ± 2.1	–
[2], 298.15 K	–	137.04 ± 2.1	–
[2], 299.15 K	–	137.09 ± 2.1	–
[2], 300.15 K	–	137.11 ± 2.1	–
[2], 301.15 K	–	137.15 ± 2.1	–
[2], 302.15 K	–	137.2 ± 2.1	–
[2], 303.15 K	–	137.25 ± 2.1	–
[2], 304.15 K	–	137.29 ± 2.1	–
[2], 305.15 K	–	137.32 ± 2.1	–
[2], 306.15 K	–	137.39 ± 2.1	–
[2], 307.15 K	–	137.42 ± 2.1	–
[2], 308.15 K	–	137.49 ± 2.1	–
[2], 309.15 K	–	137.53 ± 2.1	–
[2], 310.15 K	–	137.6 ± 2.1	–
[2], 311.15 K	–	137.65 ± 2.1	–
[2], 312.15 K	–	137.71 ± 2.1	–
[2], 313.15 K	–	137.77 ± 2.1	–

CCCCCCC [heptane]
[1]
Conditions	mass density [kg/m3]
293.15 K	683.82 ± 0.63
298.15 K	679.59 ± 0.63
303.15 K	675.31 ± 0.64
308.15 K	671.02 ± 0.65
313.15 K	666.68 ± 0.65

CCCCCCC [heptane] + BrCCBr
[3]
Conditions	mass density [kg/m3]
293.15 K	683.82 ± 0.63
298.15 K	679.59 ± 0.63
303.15 K	675.31 ± 0.64
308.15 K	671.02 ± 0.65
313.15 K	666.68 ± 0.65
